Measured values as given in US20140239906A1, “REDOX-ACTIVE LIGAND-BASED TRANSITION METAL COMPLEX FLOW BATTERIES” (Sandia Corporation, priority 2013, published 2014).

Columns and labels:
[1] = Stability under air (solid and acetonitrile solution), CV and UV-vis; assay type: physicochemical
From the text: Long-term stability is a key consideration in the development of RFB systems and recent research has included extensive investigations of state-of-the-art aqueous RFB systems. Factors affecting stability and the decay of capacity including membrane chemistry, thermal effects, gas evolution and electrode corrosion have been identified and this remains an active research area. In comparison, the long-term stability of non-aqueous RFBs remains to be investigated. […] To investigate its stability in solution, a 1 mM acetonitrile solution was analyzed, stored for a period of one week under air atmosphere, and subsequently analyzed. […] Long-term studies to investigate the stability of the membrane, electrode and electrolytes have been initiated.

[2] = Static cell (H-cell) galvanostatic charge-discharge cycling; conditions: 20 mM in acetonitrile, 0.1 M [TBA][PF6]; through cycle 16
Method: Cyclic voltammetry (CV) was carried out using a Bio-Logic SP-200 potentiostat, a glassy carbon working electrode, a Pt wire counter electrode and a silver-wire pseudo reference electrode. Ferrocene was used as an internal standard. For static cell battery testing, an H-cell was used containing 20 mM anolyte/catholyte and 100 mM [NBu4][PF6] supporting electrolyte. Charge and discharge currents were 1 mA and 0.1 mA, respectively. Graphite electrodes (POCO) having a 2 cm^2 active area and a Tonen V25EKD separator were used.
A two-compartment cell with non-flowing solutions (i.e., “static cell”) was assembled to assess the charge-discharge characteristics of [V(mnt)3]^2− in a non-aqueous environment. Both compartments contained a 20 mM solution of 1b in acetonitrile with 0.1 M tetrabutylammonium hexafluorophosphate as supporting electrolyte. Two graphite electrodes (POCO) with 2 cm^2 active areas and a V25EKD separator (Tonen) were used. Because the discharged cathode and anode complexes are both in the 2^− oxidation state, it is presumed that the cathode complex converts to the 1^− state and the anode complex converts to the 3^− state during charge.

[3] = Cyclic voltammetry (redox potentials); assay type: physicochemical; conditions: 20 mM in CH3CN with 0.1 M [TBA][PF6], 250 mV/s, room temperature; mid-point of anodic and cathodic peak potentials
From the text: Ferrocene was used as an internal standard.
CV of 1b, shown in FIG. 7, is similar to that reported previously for [V(mnt)3]^2− with various cations. Three reversible waves corresponding to the 4^−/3^−, 3^−/2^− and 2^−/1^− redox couples are observed at −1.41 V, −0.227 V and 0.856 V vs. SHE, respectively. Redox potential values reported herein correspond to the mid-point between the anodic and cathodic peak potentials of a cyclic voltammogram. […] Thus, a battery cell constructed using 1 as both anolyte and catholyte has a theoretical cell potential of […] and a theoretical energy density of 13 W·h·L^−1. However, bulk reduction of [V(mnt)3]^2− to [V(mnt)3]^3− in the anodic half-cell before charging would result in a theoretical cell potential and energy density of 2.3V and 28 W·h·L^−1, respectively. These values compare favorably to previously reported non-aqueous RFB electrolytes. A RFB based on [V(mnt)3]^2− solutions would also benefit from having the same chemical species in both half-cells, a strategy that has been employed previously to prevent irreversible self-discharge from crossover of active redox species through the membrane. This feature then also enables the use of inexpensive, microporous separators that are not ion-selective.

[4] = Solubility in acetonitrile by UV-vis spectroscopy; assay type: physicochemical; conditions: absorbance at 568 nm, Beers law
Method: Solutions were prepared by mixing roughly equal volumes of metal complex and solvent. The resulting black solution was concentrated with a stream of N2 until a slight crust began to form, which was re-dissolved with warming and agitation. The sample was then centrifuged at 8000 RPM for two hours and allowed to stand overnight. Concentrations were determined using absorbance at 568 nm, ε568=4540 M^−1cm^−1.

SMILES	stability in solution (CV and UV-vis spectroscopy) ([1]; 1 mM acetonitrile solution, one week under air atmosphere)	stability as prepared to ambient oxygen and moisture ([1]; as prepared, stored under air)	electrochemical yield (faradaic efficiency) of charge cycles, stabilized [2]	redox potential 2−/1− couple [3]	redox potential 3−/2− couple [3]	redox potential 4−/3− couple [3]	maximum solubility [4]
C[N+](C)(C)C.C[N+](C)(C)C.N#CC([S-])=C([S-])C#N.N#CC([S-])=C([S-])C#N.N#CC([S-])=C([S-])C#N.[V+4] [1a]	unchanged	no decomposition was observed	–	–	–	–	–
CC[N+](CC)(CC)CC.CC[N+](CC)(CC)CC.N#CC([S-])=C([S-])C#N.N#CC([S-])=C([S-])C#N.N#CC([S-])=C([S-])C#N.[V+4] [1b]	–	–	20-25%	0.856 V vs. SHE	−0.227 V vs. SHE	−1.41 V vs. SHE	~900 mM
